Test results as given in patent US12144814B2, “Compositions containing paraxanthine and beta-hydroxybutyrate or precursor for increasing neurological and physiological performance” (priority 2023, dated 2024).
“Also recorded” adds a separate entry of the source.

What was measured:
healthy young adults [1] = experiment: Go/No Go Attention and Inhibitory Control Test; type: in vivo; settings: 200 mg paraxanthine; 5 g BHB; 200 mg paraxanthine and 5 g BHB; baseline and 1-6 hours after supplementation; FIG. 5
Text: Attention and inhibitory control can be measured using a Go/No Go Test, which is used to measure a participant's capacity for sustained attention and response control. The Go/No Go Test is routinely used in the field, and will be familiar to those of skill in the art. In the Go/No Go Test, participants watch a 2×2 array of squares, and then there is a successive presentation of letters (e.g., either P or R) and the participant responds to a target letter by pressing the corresponding button on a keyboard. The single letter (P or R) is presented in one of the 4 squares for 500 milliseconds, with 1500 milliseconds between subsequent stimuli. For the P-Go condition, participants are asked to press the P key in response to the letter P, and abstain from responding to the letter R. For the R-reversal condition, the participants are asked to respond to the letter R, and abstain when seeing the letter P. Mean response time, as well as percentage of correct answers are recorded. When running each such tests, subjects are given either paraxanthine+BHB, paraxanthine alone, BHB alone, or a placebo. The dosage amounts are 200 mg paraxanthine and 5 g of BHB, 200 mg of paraxanthine alone, 5 g of BHB alone, or a placebo. The testing is conducted under double blind, placebo controlled conditions. […]

healthy young adults [2] = experiment: Vigilance Task Test; type: in vivo; settings: 200 mg paraxanthine; 5 g BHB; 200 mg paraxanthine and 5 g BHB; baseline and 1-6 hours after supplementation; FIG. 6
Text: The Vigilance Task Test is another test routinely used in the field, and is used to evaluate a participants ability to sustain attention. The Vigilance Task Test is a sustained attention, reaction timed task test that measures the speed with which participants respond to a visual stimulus. The subjects respond to visual stimuli (e.g., a red dot) by pressing a key as soon as it appears on the computer screen. The light turns on at random, e.g., roughly every couple of seconds or so during the test. The speed of response is measured. Due to the random nature of the test, there is no learning effect. Mean response time is recorded. When running each such tests, subjects are given either paraxanthine+BHB, paraxanthine alone, BHB alone, or a placebo. The dosage amounts are 200 mg paraxanthine and 5 g of BHB, 200 mg of paraxanthine alone, 5 g of BHB alone, or a placebo. The testing is conducted under double blind, placebo controlled conditions. The subjects include 13 healthy young adults (10 male, 3 female), aged 24±5 years; height 170.0±11.8 cm; weight 72.9±19.3 kg.

healthy young adults [3] = experiment: Berg-Washington Card Sorting Task Test; type: in vivo; settings: 200 mg paraxanthine, 5 g BHB, 200 mg paraxanthine and 5 g BHB
Text: The Berg-Washington Card Sorting Task (BCST) test is a test routinely used in the field to evaluate cognitive flexibility. The BCST test focuses on basic cognitive flexibility or set-shifting between old vs. new rule changes. The test involves reasoning, learning, executive control, and attention shifting. It is particularly sensitive to the subject's inability to shift set. Cards are shown with different colors (e.g., red, green, yellow, blue), different designs (e.g., circle, triangle, star, plus sign) and different numbers of symbols (e.g., 1-4) on the computer screen. Participants are asked to sort the cards by matching colors and/or designs and/or number of symbols, where the instruction for how to sort the cards can change, at different times during the test. Number of correct responses and number of errors (particular perservative errors, where the participant incorrectly continues sorting the cards under an old instruction, after a new instruction is given) are recorded. When running each such tests, subjects are given either paraxanthine+BHB, paraxanthine alone, BHB alone, or a placebo. The dosage amounts are 200 mg paraxanthine and 5 g of BHB, 200 mg of paraxanthine alone, 5 g of BHB alone, or a placebo. The testing is conducted under double blind, placebo controlled conditions. […]

[4] = tested on: healthy trained male runners; experiment: Vigilance Task Test before and after 10 km treadmill run; type: in vivo; settings: 200 mg paraxanthine, 200 mg caffeine, 5 g BHB, and combinations, FIG. 13
Text: The Vigilance Task Test is another test routinely used in the field, and is used to evaluate a participants ability to sustain attention. The Vigilance Task Test is a sustained attention, reaction timed task test that measures the speed with which participants respond to a visual stimulus. The subjects respond to visual stimuli (e.g., a red dot) by pressing a key as soon as it appears on the computer screen. The light turns on at random, e.g., roughly every couple of seconds or so during the test. The speed of response is measured. Due to the random nature of the test, there is no learning effect. Mean response time is recorded. […] The testing is conducted under double blind, placebo controlled conditions. The subjects include 12 healthy trained male runners, aged 26±5 years. Baseline cognition tests are administered (PRE), the given supplement is ingested, and after 60 minutes of rest, a pre-race cognition test (PRE-EX) is administered. A 10 km run on a treadmill is then performed, followed by a post-race cognition test (POST), The cognition tests include a Vigilance Task Test (measuring the ability to remain heedfully vigilant) and a Berg-Washington Card Sorting Task Test (measuring cognitive flexibility).

[5] = Clinical Resting Energy Expenditure study; type: in vivo; settings: paraxanthine 100 mg or 300 mg; BHB 5 g; paraxanthine 100 mg or 300 mg with BHB 5 g; 180-day period
Method: FIGS. 16A-16B show expected results of a clinical Resting Energy Expenditure study, where participants are supplemented with paraxanthine alone (100 mg or 300 mg), BHB alone (5 g), or paraxanthine (100 mg or 300 mg) in combination with BHB (5 g) over a 180-day period. […] Because of the presence of the BHB ketone body component, such increased metabolic rate is also more likely to occur within the context of ketogenic state, where fat is principally used as the caloric energy source for the increased resting metabolic rate.

[6] = biological target: cGMP-preferring phosphodiesterase (PDE9) (Homo sapiens, UniProt O76083); settings: cited from earlier work
[7] = in vivo; cited from earlier work
[8] = in vivo; cited from earlier work; remark: listed apart in the source
[9] = metabolite of caffeine, cited from earlier work

Sequence of cGMP-preferring phosphodiesterase (PDE9) (O76083 whole entry): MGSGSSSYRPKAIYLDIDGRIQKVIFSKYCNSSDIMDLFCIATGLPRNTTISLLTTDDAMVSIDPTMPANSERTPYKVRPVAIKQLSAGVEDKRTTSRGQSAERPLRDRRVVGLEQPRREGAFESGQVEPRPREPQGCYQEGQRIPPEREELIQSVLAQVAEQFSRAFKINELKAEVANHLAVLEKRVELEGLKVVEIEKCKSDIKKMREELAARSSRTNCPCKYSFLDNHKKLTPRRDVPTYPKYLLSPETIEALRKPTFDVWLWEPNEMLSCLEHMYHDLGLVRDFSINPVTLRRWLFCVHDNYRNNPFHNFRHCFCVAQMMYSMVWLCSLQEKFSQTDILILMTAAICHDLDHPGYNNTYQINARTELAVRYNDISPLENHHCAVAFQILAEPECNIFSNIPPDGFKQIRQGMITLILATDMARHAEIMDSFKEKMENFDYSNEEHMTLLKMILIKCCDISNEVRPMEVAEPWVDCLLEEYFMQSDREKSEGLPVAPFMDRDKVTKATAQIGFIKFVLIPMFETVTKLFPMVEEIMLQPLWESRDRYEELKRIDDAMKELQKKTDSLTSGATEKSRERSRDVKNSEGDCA

Cn1c(=O)[nH]c2ncn(C)c2c1=O [paraxanthine, 1,7-dimethylxanthine]
Go/No Go Test average response time (healthy young adults [1]): faster response times | Vigilance Task Test average response time (healthy young adults [2]): faster response times | Berg-Washington Card Sorting Task Test number of correct responses (healthy young adults [3]; FIG. 7): significant increase in the number of correct responses | Berg-Washington Card Sorting Task Test number of errors (healthy young adults [3]; FIG. 8): reduction in the number of errors | Vigilance Task Test response times [4]: some benefit | resting energy expenditure [5]: some increase in resting energy expenditure | inhibition of PDE9 [6]: inhibits PDE9; also recorded: selective inhibitor | locomotor activation effects [7]: stronger locomotor activation effects than caffeine | wake promoting activity [8]: stronger wake promoting activity as compared to caffeine | share of the methylxanthine metabolic by-products ([9]; FIG. 2): about 84% | share of caffeine ingested [9]: 70-72%
